Assay results taken from patent EP0341527A2, “Agent for increasing animal growth” (HOECHST AKTIENGESELLSCHAFT, priority 1988, dated 1989).

How the values were obtained:
[1] = test system: Männliche Lohmann-Masthähnchen; assay: Feeding trial in broilers (growth, feed intake, feed conversion); type: in vivo, Broilern; settings: for Futteraufnahme (g/d) / Futteraufnahme, prozentualer Wert relativ zur Kontrollgruppe / Gewicht (Masse) am Ende, prozentualer Wert relativ zur Kontrollgruppe / Massezunahme, prozentualer Wert relativ zur Kontrollgruppe / Futterverwertung, prozentualer Wert relativ zur Kontrollgruppe / Gewicht (Masse) (g) am Ende / Massezunahme (g/d) / Futterverwertung g Futter/g Zunahme: 22 wt% protein; for Futterverwertung, prozentualer Wert relativ zur Kontrollgruppe / Futterverwertung g Futter/g Zunahme: lower = better; for Gewicht (Masse) (g) am Ende / Massezunahme (g/d) / Futterverwertung g Futter/g Zunahme: mean ± spread
Experimental: Männliche Lohmann-Masthähnchen mit einer Lebendmasse zwischen 35 und 45 g wurden in Gruppen von jeweils 20 Tieren pro Behandlung (100 cm²/Tier) auf einer Einstreu aus Hobelspänen bei 24-stündiger Beleuchtung und einer Temperatur von 36 ± 1°C bis zum 21. Versuchstag und 26 ± 1°C vom 22. bis zum 35. Versuchstag gehalten. Das Futter wurde ad libitum angeboten. Die Zusammensetzung des Futters (ohne Wirkstoff) ist in Tabelle 5 angegeben. Der Proteingehalt betrug 22 Gew.-% (entsprechend dem Bedarf). Forskolin wurde als Wurzelmehl über eine Glucose-Vormischung in die Ration eingebracht. Tabelle 5

[2] = test system: männlichen Ratten; assay: Feeding trial in male rats (growth, feed intake, feed conversion); type: in vivo; settings: for Futterverwertung (g Futter/g Gewichtszunahme) relativ zur Kontrollgruppe in % / mittlere Futterverwertung relativ zur Kontrollgruppe in %: lower number = better feed conversion; for mittlere Futterverwertung relativ zur Kontrollgruppe in %: mean over 5-40 ppm Forskolin; for Futteraufnahme (g/d) / Futteraufnahme relativ zur Kontrolle / Gewicht (g) am Ende / Gewichtszunahme relativ zur Kontrolle (%): 28 d
Description: In einem Fütterungsversuch mit 60 männlichen Ratten im Gewichtsabschnitt von 40 bis 170 g Lebendmasse wurde die Wirkung von 5, 10, 20 und 40 ppm Forskolin im Futter bei zwei verschiedenen Proteingehalten der Diäten (15 und 20 Gew.-% für eine suboptimale bzw. optimale Versorgung) auf das Wachstum, die Futteraufnahme und die Futterverwertung im Vergleich zum Futter ohne Gehalt an Forskolin untersucht. Die Diäten (Zusammensetzung siehe Tabelle 1) waren mit 16,6 und 16,8 kJ/g Trockensubstanz isokalorisch. Jeweils sechs Tiere wurden mit Futter gleichen Gehalts an Forskolin und Protein gefüttert und die Resultate für die Auswertung ermittelt. Die jeweiligen sechs Tiere wurden zu je zweien in Makrolonkäfigen in einer Klimakammer bei konstant 25°C und 65 % relativer Luftfeuchte 28 Tage lang gehalten.

[3] = 2 ppm Forskolin in feed (as root meal)
[4] = 4 ppm Forskolin in feed (as root meal)
[5] = 8 ppm Forskolin in feed (as root meal)
[6] = 16 ppm Forskolin in feed (as root meal)
[7] = 32 ppm Forskolin in feed (as root meal)
[8] = broilers, 'up to', 2-32 ppm Forskolin in feed
[9] = 15 wt% crude protein diet, 5 ppm Forskolin in feed
[10] = 15 wt% crude protein diet, 10 ppm Forskolin in feed
[11] = 15 wt% crude protein diet, 20 ppm Forskolin in feed
[12] = 15 wt% crude protein diet, 40 ppm Forskolin in feed
[13] = 20 wt% crude protein diet, 5 ppm Forskolin in feed
[14] = 20 wt% crude protein diet, 10 ppm Forskolin in feed
[15] = 20 wt% crude protein diet, 20 ppm Forskolin in feed
[16] = 20 wt% crude protein diet, 40 ppm Forskolin in feed

## C=C[C@@]1(C)CC(=O)[C@]2(O)[C@@]3(C)[C@@H](O)CCC(C)(C)[C@@H]3[C@H](O)[C@H](OC(C)=O)[C@@]2(C)O1 [Forskolin]
[1]; [3]
  Futteraufnahme (g/d): 88,4 g/d
  Futteraufnahme, prozentualer Wert relativ zur Kontrollgruppe: 104,0%
  Gewicht (Masse) am Ende, prozentualer Wert relativ zur Kontrollgruppe: 108,5%
  Massezunahme, prozentualer Wert relativ zur Kontrollgruppe: 109,0%
  Futterverwertung, prozentualer Wert relativ zur Kontrollgruppe: 94,6%
  Gewicht (Masse) (g) am Ende: 1715,2±196,2 g
  Massezunahme (g/d): 45,4±5,4 g/d
  Futterverwertung g Futter/g Zunahme: 1,97±0,24 g Futter/g Zunahme
[1]; [4]
  Futteraufnahme (g/d): 86,2 g/d
  Futteraufnahme, prozentualer Wert relativ zur Kontrollgruppe: 101,6%
  Gewicht (Masse) am Ende, prozentualer Wert relativ zur Kontrollgruppe: 106,4%
  Massezunahme, prozentualer Wert relativ zur Kontrollgruppe: 106,0%
  Futterverwertung, prozentualer Wert relativ zur Kontrollgruppe: 95,7%
  Gewicht (Masse) (g) am Ende: 1682,5±253,7 g
  Massezunahme (g/d): 44,4±6,9 g/d
  Futterverwertung g Futter/g Zunahme: 1,99±0,38 g Futter/g Zunahme
[1]; [5]
  Futteraufnahme (g/d): 83,8 g/d
  Futteraufnahme, prozentualer Wert relativ zur Kontrollgruppe: 98,7%
  Gewicht (Masse) am Ende, prozentualer Wert relativ zur Kontrollgruppe: 103,9%
  Massezunahme, prozentualer Wert relativ zur Kontrollgruppe: 104,3%
  Futterverwertung, prozentualer Wert relativ zur Kontrollgruppe: 93,8%
  Gewicht (Masse) (g) am Ende: 1643,0±192,3 g
  Massezunahme (g/d): 43,5±5,3 g/d
  Futterverwertung g Futter/g Zunahme: 1,95±0,24 g Futter/g Zunahme
[1]; [6]
  Futteraufnahme (g/d): 86,7 g/d
  Futteraufnahme, prozentualer Wert relativ zur Kontrollgruppe: 102,0%
  Gewicht (Masse) am Ende, prozentualer Wert relativ zur Kontrollgruppe: 103,1%
  Massezunahme, prozentualer Wert relativ zur Kontrollgruppe: 103,4%
  Futterverwertung, prozentualer Wert relativ zur Kontrollgruppe: 97,9%
  Gewicht (Masse) (g) am Ende: 1629,5±242,4 g
  Massezunahme (g/d): 43,1±6,6 g/d
  Futterverwertung g Futter/g Zunahme: 2,04±0,33 g Futter/g Zunahme
[1]; [7]
  Futteraufnahme (g/d): 86,4 g/d
  Futteraufnahme, prozentualer Wert relativ zur Kontrollgruppe: 101,8%
  Gewicht (Masse) am Ende, prozentualer Wert relativ zur Kontrollgruppe: 103,9%
  Massezunahme, prozentualer Wert relativ zur Kontrollgruppe: 103,9%
  Futterverwertung, prozentualer Wert relativ zur Kontrollgruppe: 97,2%
  Gewicht (Masse) (g) am Ende: 1642,7±182,9 g
  Massezunahme (g/d): 43,3±5,0 g/d
  Futterverwertung g Futter/g Zunahme: 2,02±0,28 g Futter/g Zunahme
[1]; [8]
  Futterverwertung verbessert: ≤ 7%
  Lebendmassezunahme gegenüber der Kontrollgruppe verbessert: ≤ 9%
[2]; 15 % protein, 5 ppm Forskolin
  Zuwachs: ca. 91 g
  Futterverwertung (g Futter/g Gewichtszunahme) relativ zur Kontrollgruppe in %: 107,7%
[2]; 15 % protein, 10 ppm Forskolin
  Zuwachs: ~115 g
  Futterverwertung (g Futter/g Gewichtszunahme) relativ zur Kontrollgruppe in %: 100,8%
[2]; 15 % protein, 20 ppm Forskolin
  Zuwachs: ~122 g
  Futterverwertung (g Futter/g Gewichtszunahme) relativ zur Kontrollgruppe in %: 97,3%
[2]; 15 % protein, 40 ppm Forskolin
  Futterverwertung (g Futter/g Gewichtszunahme) relativ zur Kontrollgruppe in %: 109,3%
[2]; 15 % protein
  mittlere Futterverwertung relativ zur Kontrollgruppe in %: 103,7%
[2]; 15 and 20 wt% protein, up to 20 ppm Forskolin, within 28 days, 'up to'
  gesteigerte Zunahme an Lebendmasse im Vergleich zur entsprechenden Kontrollgruppe: ≤ 39%
[2]; [9]
  Gewichtszunahme (g/28 d): 90,9 g/28 d
  Futteraufnahme (g/d): 9,07 g/d
  Futteraufnahme relativ zur Kontrolle: 111,9
  Gewicht (g) am Ende: 131,3 g
  Gewichtszunahme relativ zur Kontrolle (%): 103,6%
[2]; [10]
  Gewichtszunahme (g/28 d): 115,1 g/28 d
  Futteraufnahme (g/d): 10,70 g/d
  Futteraufnahme relativ zur Kontrolle: 132,2
  Gewicht (g) am Ende: 156,0 g
  Gewichtszunahme relativ zur Kontrolle (%): 131,2%
[2]; [11]
  Gewichtszunahme (g/28 d): 122,0 g/28 d
  Futteraufnahme (g/d): 11,00 g/d
  Futteraufnahme relativ zur Kontrolle: 135,7
  Gewicht (g) am Ende: 162,6 g
  Gewichtszunahme relativ zur Kontrolle (%): 139,1%
[2]; [12]
  Gewichtszunahme (g/28 d): 81,8 g/28 d
  Futteraufnahme (g/d): 8,26 g/d
  Futteraufnahme relativ zur Kontrolle: 101,8
  Gewicht (g) am Ende: 122,3 g
  Gewichtszunahme relativ zur Kontrolle (%): 93,3%
[2]; 20 % protein content, 'up to about', refers to mean feed conversion of Table 4
  Futterverwertung erhöht: ≤ 8%
[2]; 20 % protein, 5 ppm Forskolin
  Futterverwertung (g Futter/g Gewichtszunahme) relativ zur Kontrollgruppe in %: 92,4%
[2]; 20 % protein, 10 ppm Forskolin
  Zuwachs: ~113 g
  Futterverwertung (g Futter/g Gewichtszunahme) relativ zur Kontrollgruppe in %: 93,8%
[2]; 20 % protein, 20 ppm Forskolin
  Zuwachs: ~121 g
  Futterverwertung (g Futter/g Gewichtszunahme) relativ zur Kontrollgruppe in %: 90,5%
[2]; 20 % protein, 40 ppm Forskolin
  Futterverwertung (g Futter/g Gewichtszunahme) relativ zur Kontrollgruppe in %: 92,0%
[2]; 20 % protein
  mittlere Futterverwertung relativ zur Kontrollgruppe in %: 92,2%
[2]; [13]
  Gewichtszunahme (g/28 d): 117,6 g/28 d
  Futteraufnahme (g/d): 10,70 g/d
  Futteraufnahme relativ zur Kontrolle: 115,7
  Gewicht (g) am Ende: 157,7 g
  Gewichtszunahme relativ zur Kontrolle (%): 124,4%
[2]; [14]
  Gewichtszunahme (g/28 d): 112,9 g/28 d
  Futteraufnahme (g/d): 10,40 g/d
  Futteraufnahme relativ zur Kontrolle: 112,4
  Gewicht (g) am Ende: 153,2 g
  Gewichtszunahme relativ zur Kontrolle (%): 119,9%
[2]; [15]
  Gewichtszunahme (g/28 d): 120,5 g/28 d
  Futteraufnahme (g/d): 10,70 g/d
  Futteraufnahme relativ zur Kontrolle: 115,7
  Gewicht (g) am Ende: 161,9 g
  Gewichtszunahme relativ zur Kontrolle (%): 127,9%
[2]; [16]
  Gewichtszunahme (g/28 d): 103,1 g/28 d
  Futteraufnahme (g/d): 9,31 g/d
  Futteraufnahme relativ zur Kontrolle: 100,6
  Gewicht (g) am Ende: 143,0 g
  Gewichtszunahme relativ zur Kontrolle (%): 109,4%
